Laboratory results published in US7700080B2, “Method of suppressing melanin production by metal chelates of lipoyl amino acid derivatives” (Senju Pharmaceutical Co., Ltd., priority 2001, dated 2010).

Legend:
[1] = system: B16-F0 melanoma cell line; experiment: Melanin production suppressing activity in B16-F0 melanoma cells; assay type: cell-based, mouse; conditions: for Melanin amount (% of control): three days with 2 mM theophylline; for Suppressive action on melanin production (in words): summary of Table 2, compared with arbutin or kojic acid
Method: B16-F0 melanoma cell line of mouse origin, purchased from Dainippon Pharmaceutical Co., Ltd. was used in the experiment. In 60-mm petri dish, 200,000 cells were incubated for five days in a medium (D-MEM*+10% FBS*) supplemented with 0.1% D-glucosamine hydrochloride, an inhibitor of carbohydrate synthesis, to halt melanin synthesis and turn the culture white. Following the 5-day culture, the cells were washed with PBS(−)* to remove D-glucosamine hydrochloride, and 2 mM theophylline (250-fold concentrated solution/distilled water), a phosphodiesterase inhibitor, was added to raise intracellular cAMP and thereby promote the recovery of tyrosinase synthesis. At the same time, a test compound (250-fold concentrated solution/PBS(−)) was added. Three days after the addition of theophylline and the test compound, the cells were harvested by trypsin treatment. The cell pellets were resuspended in 1 ml of PBS(−), 0.1 ml of which was used for counting cells, and 0.9 ml for melanin determination. Determination of melanin was carried out by washing the cell pellets once with 5% trichloroacetic acid, ethanol/diethyl ether (3:1), and then diethyl ether, adding 1 ml of 2 N NaOH to lyse the cells, measuring optical density at 420 nm, and comparing the result with a calibration curve produced with reference standard.

elastase = experiment: Elastase inhibiting activity (Suc(Ome)-Ala-Ala-Pro-Val-MCA fluorescence); assay type: biochemical; conditions: for Elastase inhibition rate (%): 25° C., pH 7.5; for Elastase inhibiting activity (in words): summary of Table 3
Method: 96-well plates were used. 1 mM of Suc(Ome)-Ala-Ala-Pro-Val-MCA, 30 μl of a test sample, 210 μl of Tris-NaCl Buffer (25° C., pH 7.5) and 30 μl of 1 unit/ml elastase were added and fluorescence was measured every minute (Ex. 360/40 nm, Em. 460/40 nm). Inhibition rates of elastase activity were determined based on a calibration curve produced with AMC (7-amino-4-methyl-coumarin) reference standard.

[2] = target: T1, Tyrosine hydroxylase from rat brain (Rattus norvegicus, UniProt P04177); experiment: Tyrosine hydroxylase inhibiting activity; assay type: biochemical; conditions: for Tyrosine hydroxylase inhibition rate: 37° C., 40 minutes, pH 6.0
T1 construct: Tyrosine hydroxylase from rat brain was used in the test; from tissue; host or cells: rat brain
T1 sequence (P04177 whole entry): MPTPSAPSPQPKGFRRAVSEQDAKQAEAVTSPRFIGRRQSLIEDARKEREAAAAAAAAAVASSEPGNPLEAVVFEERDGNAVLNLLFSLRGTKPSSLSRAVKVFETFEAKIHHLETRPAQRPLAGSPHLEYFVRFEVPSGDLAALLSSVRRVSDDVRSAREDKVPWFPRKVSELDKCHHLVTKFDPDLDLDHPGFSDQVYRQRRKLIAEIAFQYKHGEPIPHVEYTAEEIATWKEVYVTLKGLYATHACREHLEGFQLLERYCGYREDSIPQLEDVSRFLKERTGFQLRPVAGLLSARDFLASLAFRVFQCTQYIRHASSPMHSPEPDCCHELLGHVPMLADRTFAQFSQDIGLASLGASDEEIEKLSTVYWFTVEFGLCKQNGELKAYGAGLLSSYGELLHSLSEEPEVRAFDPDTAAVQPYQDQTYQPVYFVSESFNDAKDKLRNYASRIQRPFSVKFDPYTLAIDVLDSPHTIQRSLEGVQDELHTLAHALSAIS
Method: Tyrosine hydroxylase from rat brain was used in the test.
A test compound added to 100 μM tyrosine containing L-[3,5-^3H] tyrosine (0.5 μCi/assay), 1 mg of tyrosine hydroxylase, 0.2 mM of (6R)-5,6,7,8-tetrahydro-L-biopterin, 1.8 mg/ml catalase, 5 mM dithiothreitol (in MES buffer, pH 6.0) was incubated at 37° C. for 40 minutes. The reaction was terminated by addition of 7.5% charcoal in 1 M hydrochloric acid.
^3H2O derived from 3,4-dihydroxyphenylalanine (DOPA) was determined by liquid scintillation.

| Compound | Melanin amount (% of control) ([1]; 0.03 mM) | Melanin amount (% of control) ([1]; 0.1 mM) | Melanin amount (% of control) ([1]; 0.3 mM) | Suppressive action on melanin production (in words) [1] | Elastase inhibition rate (%) (elastase; 0.03 mM) | Elastase inhibiting activity (in words) (elastase) | Elastase inhibition rate (%) (elastase; 0.1 mM) | Elastase inhibition rate (%) (elastase; 0.3 mM) | Elastase inhibition rate (%) (elastase; 1 mM) | Melanin amount (% of control) ([1]; 1 mM) | Tyrosine hydroxylase inhibition rate ([2]; test compound 0.1 mM) | Tyrosine hydroxylase inhibition rate ([2]; test compound 1 mM) | Tyrosine hydroxylase inhibiting activity (in words) ([2]; summary of Table 1) | Melanin amount (% of control) ([1]; 10 mM) |
| --- | --- | --- | --- | --- | --- | --- | --- | --- | --- | --- | --- | --- | --- | --- |
| O=C([O-])CCCCCNC(=O)CCCCC1CC[S][Zn][S]1.[Na+] (centres unmarked) [Example 5, N-(6,8-dimercaptooctanoyl)-6-aminohexanoic acid sodium salt zinc chelate compound] | 64.43 % of control | 27.69 % of control | 9.85 % of control | potent suppressive action on melanin production | 94.74% | comparable to Elastinal |  |  |  |  |  |  |  |  |
| O=C(CCCCC1CC[S][Zn][S]1)Nc1ccccc1C(=O)[O-].[Na+] (centres unmarked) [Example 8, N-(6,8-dimercaptooctanoyl)anthranilic acid sodium salt zinc chelate compound] | 72.47 % of control | 47.64 % of control | 16.74 % of control | potent suppressive action on melanin production | 24.07% | comparable to Elastinal | 48.15% | 72.22% |  |  |  |  |  |  |
| O=C([O-])CCCNC(=O)CCCCC1CC[S][Zn][S]1.[Na+] (centres unmarked) [Example 6, N-(6,8-dimercaptooctanoyl)-γ-amino-n-butyric acid sodium salt zinc chelate compound] | 61.18 % of control | 29.20 % of control | 9.73 % of control | potent suppressive action on melanin production | 78.95% | comparable to Elastinal |  |  |  |  |  |  |  |  |
| CSCCC(NC(=O)CCCCC1CC[S][Zn][S]1)C(=O)O (centres unmarked) [Example 9, N-(6,8-dimercaptooctanoyl)methionine zinc chelate compound] | 63.05 % of control | 50.18 % of control | 16.41 % of control | potent suppressive action on melanin production | 7.41% | comparable to Elastinal | 68.52% | 88.89% |  |  |  |  |  |  |
| CC(C)C[C@H](NC(=O)N[C@H](C(=O)N[C@@H](CCC(N)=O)C(=O)N[C@@H](C)C=O)[C@@H]1CCNC(=N)N1)C(=O)O [Elastinal, reference compound] |  |  |  |  | 25.29% |  | 56.87% | 77.45% | 93.01% |  |  |  |  |  |
| O=C(CCCCC1CC[S][Zn][S]1)NC(Cc1ccccc1)C(=O)[O-].[Na+] (centres unmarked) [Example 7, N-(6,8-dimercaptooctanoyl)phenylalanine sodium salt zinc chelate compound] | 71.43 % of control | 37.78 % of control |  | potent suppressive action on melanin production | 83.33% | comparable to Elastinal |  |  |  |  |  |  |  |  |
| OC[C@H]1O[C@@H](Oc2ccc(O)cc2)[C@H](O)[C@@H](O)[C@@H]1O [Arbutin, reference compound] |  | 97.29 % of control | 88.86 % of control |  |  |  |  |  |  | 83.02 % of control |  |  |  |  |
| O=C(CCCCC1CC[S][Zn][S]1)NCCS(=O)(=O)[O-].[Na+] (centres unmarked) [Example 1, N-(6,8-dimercaptooctanoyl)aminoethanesulfonic acid sodium salt zinc chelate compound] | 78.33 % of control | 30.01 % of control | 12.28 % of control | potent suppressive action on melanin production |  |  |  |  |  |  | 15% | 53% |  |  |
| O=C(CCCCC1CCSS1)NCCS(=O)(=O)[O-].[Na+] (stereo not drawn) [Reference Example 1, N-α-lipoylaminoethanesulfonic acid sodium salt] |  |  |  |  |  |  |  |  |  |  | 11% | 10% |  |  |
| O=C(O)CCCCC1CCSS1 (stereo not drawn) [α-lipoic acid, reference compound] |  |  |  |  | −2.94% | did not show any elastase inhibiting activity | 11.76% | 10.29% |  |  | 2% | 1% | no tyrosine hydroxylase inhibiting activity |  |
| O=c1cc(CO)occ1O [Kojic acid, reference compound] |  | 92.70 % of control | 88.04 % of control |  |  |  |  |  |  | 68.80 % of control |  |  |  | 18.73 % of control |
